Assay results taken from ChEMBL document CHEMBL1201862, “PubChem BioAssay data set” (2004).
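Cells were grown in 96-well plates and exposed to each compound for 48 hours at five concentrations; endpoints were interpolated linearly between bracketing concentrations, or set to the highest concentration if not reached. At the GI50, growth is halved.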 The source made the active and inactive calls. No stated cut-off is given here; in the data, active = GI50 up to about 1.1 µM and inactive = higher.

Columns and labels:
Assay in all cases: DTP human tumour cell line panel, 48 h
[1] = tested on: CCRF-CEM
[2] = tested on: UO-31
[3] = tested on: TK-10
[4] = tested on: SK-MEL-28
[5] = tested on: HOP-92
[6] = tested on: SK-MEL-5
[7] = tested on: PC-3
[8] = tested on: 786-0
[9] = tested on: MDA-N
[10] = tested on: MDA-MB-435
[11] = tested on: OVCAR-3
[12] = tested on: SF-539
[13] = tested on: HCT-116
[14] = tested on: ACHN
[15] = tested on: A549
[16] = tested on: SR
[17] = tested on: RPMI-8226
[18] = tested on: Malme-3M
[19] = tested on: K562

Row | Structure (SMILES) | GI50 [1] | GI50 [2] | GI50 [3] | GI50 [4] | GI50 [5] | GI50 [6] | GI50 [7] | GI50 [8] | GI50 [9] | GI50 [10] | GI50 [11] | GI50 [12] | GI50 [13] | GI50 [14] | GI50 [15] | GI50 [16] | GI50 [17] | GI50 [18] | GI50 [19]
1 | Cc1cc(Cl)ccc1NC(=O)/C(CC(=O)CC(c1ccccc1)c1c(O)c2ccccc2oc1=O)=N\O (configuration not stated) | 7.87 µM (inactive) | 65 µM (inactive) | > 100 µM (inactive) | > 100 µM (inactive) | 39.2 µM (inactive) | > 100 µM (inactive) | > 100 µM (inactive) | > 100 µM (inactive) | > 100 µM (inactive) | > 100 µM (inactive) | > 100 µM (inactive) | > 100 µM (inactive) | > 100 µM (inactive) | > 100 µM (inactive) | > 100 µM (inactive) |  |  |  | 
2 | CCOc1c(Cc2ccccc2)c(=O)n2c3ccccc3n3c(=O)n(C)c(=O)c1c23 |  | > 100 µM (inactive) | > 100 µM (inactive) | > 100 µM (inactive) | > 100 µM (inactive) | > 100 µM (inactive) |  | > 100 µM (inactive) |  |  | > 100 µM (inactive) | > 100 µM (inactive) | > 100 µM (inactive) | > 100 µM (inactive) | > 100 µM (inactive) | > 100 µM (inactive) | > 100 µM (inactive) | > 100 µM (inactive) | 
3 | O=c1n(CCCN2CCN(c3cccc(Cl)c3)CC2)nc2n1-c1ccc3ccccc3c1SC2 | > 100 µM (inactive) |  | > 100 µM (inactive) | > 100 µM (inactive) | > 100 µM (inactive) | 6.01 µM (inactive) | > 100 µM (inactive) | > 100 µM (inactive) | > 100 µM (inactive) | > 100 µM (inactive) | > 100 µM (inactive) | > 100 µM (inactive) | 9.46 µM (inactive) |  | > 100 µM (inactive) | > 100 µM (inactive) | 58.9 µM (inactive) |  | > 100 µM (inactive)
4 | Cn1c(=O)c2nc(-c3ccc(Cl)cc3)oc2n(C)c1=O | > 100 µM (inactive) | > 100 µM (inactive) | > 100 µM (inactive) | > 100 µM (inactive) | > 100 µM (inactive) | > 100 µM (inactive) |  | > 100 µM (inactive) |  |  | > 100 µM (inactive) | > 100 µM (inactive) | > 100 µM (inactive) | > 100 µM (inactive) | > 100 µM (inactive) | > 100 µM (inactive) | > 100 µM (inactive) | > 100 µM (inactive) | > 100 µM (inactive)
5 | Cc1ccc(Oc2ccccc2N)cc1 | 7.03 µM (inactive) | 12.4 µM (inactive) | 88.1 µM (inactive) | 18.2 µM (inactive) | 37.8 µM (inactive) | 7.89 µM (inactive) |  | 21.2 µM (inactive) |  |  | 15.8 µM (inactive) | 16.7 µM (inactive) | 9.51 µM (inactive) |  | 36.9 µM (inactive) | 9.31 µM (inactive) | 33.7 µM (inactive) | > 100 µM (inactive) | 37.8 µM (inactive)
6 | CCCCCCCCCOC(=S)NCCCCC | 22.9 µM (inactive) | 17.2 µM (inactive) | 18.4 µM (inactive) | 38.7 µM (inactive) | 20.7 µM (inactive) | 21.5 µM (inactive) |  | 35.6 µM (inactive) |  |  |  | 20.8 µM (inactive) | 22.2 µM (inactive) | 29.1 µM (inactive) | 28.2 µM (inactive) | 20.5 µM (inactive) | 19.5 µM (inactive) | 29.8 µM (inactive) | 27 µM (inactive)
7 | CN(C)CC1CCCC/C1=N/OC(=O)c1ccc(Cl)cc1 (configuration not stated) | > 100 µM (inactive) | > 100 µM (inactive) | > 100 µM (inactive) | > 100 µM (inactive) | > 100 µM (inactive) |  |  | > 100 µM (inactive) |  |  | > 100 µM (inactive) | > 100 µM (inactive) | > 100 µM (inactive) | > 100 µM (inactive) | > 100 µM (inactive) | > 100 µM (inactive) | > 100 µM (inactive) | > 100 µM (inactive) | > 100 µM (inactive)
8 | O=C1ON=C2C3CC4CC12CC1(C3)C(=O)ON=C41 | > 100 µM (inactive) | > 100 µM (inactive) |  | > 100 µM (inactive) | > 100 µM (inactive) | > 100 µM (inactive) | > 100 µM (inactive) | > 100 µM (inactive) | > 100 µM (inactive) | > 100 µM (inactive) | > 100 µM (inactive) | > 100 µM (inactive) | > 100 µM (inactive) | > 100 µM (inactive) | > 100 µM (inactive) | > 100 µM (inactive) | > 100 µM (inactive) | > 100 µM (inactive) | > 100 µM (inactive)
9 | CC1C(=O)N(C)C2(CO)C(=O)O[C@H](C)C12O (some centres not stated) |  | > 100 µM (inactive) | > 100 µM (inactive) | > 100 µM (inactive) | < 0.01 µM (active) | > 100 µM (inactive) |  | > 100 µM (inactive) |  |  | > 100 µM (inactive) | > 100 µM (inactive) | > 100 µM (inactive) |  | > 100 µM (inactive) | > 100 µM (inactive) | > 100 µM (inactive) | > 100 µM (inactive) | > 100 µM (inactive)
10 | Cc1ccc(S(=O)OC2c3ccccc3Cc3ccccc32)cc1 (configuration not stated) |  | 18.3 µM (inactive) | 21.1 µM (inactive) | 19.2 µM (inactive) | 17.2 µM (inactive) | 19.3 µM (inactive) |  | 21.7 µM (inactive) |  |  | 21.5 µM (inactive) | 18.5 µM (inactive) | 17.1 µM (inactive) | 22.4 µM (inactive) | 27.3 µM (inactive) | 21.8 µM (inactive) | 36.1 µM (inactive) | 13.1 µM (inactive) | 17.7 µM (inactive)
11 | C/C1=C/C(=O)O[C@@H]2C[C@@H](CC[C@H](C)/C=C\C=C\CC1)O[C@@](O)([C@@H]1CSC(=O)N1)C2 [LATRUNCULIN A] | 0.438 µM (active) | 0.3 µM (active) | 0.264 µM (active) | 1.12 µM (inactive) | 0.116 µM (active) | 0.444 µM (active) | 0.299 µM (active) | 0.226 µM (active) | > 5.07 µM (inactive) | 0.44 µM (active) | 1.03 µM (active) | 0.171 µM (active) | 0.773 µM (active) | 0.313 µM (active) | 0.564 µM (active) | 0.653 µM (active) | > 10 µM (inactive) | 0.895 µM (active) | 3.34 µM (inactive)
12 | O=C(Nc1nc(C23CC4CC(CC(C4)C2)C3)cs1)c1cc2cc([N+](=O)[O-])ccc2oc1=O | 55.6 µM (inactive) | > 100 µM (inactive) | > 100 µM (inactive) | 75.5 µM (inactive) | 54.8 µM (inactive) | 25.6 µM (inactive) | 56.9 µM (inactive) | 17.7 µM (inactive) | > 100 µM (inactive) | 73.8 µM (inactive) | 73.3 µM (inactive) | > 100 µM (inactive) | 37 µM (inactive) | 47.3 µM (inactive) | 70.5 µM (inactive) | 68.4 µM (inactive) | > 100 µM (inactive) | 46.2 µM (inactive) | > 100 µM (inactive)
13 | Cc1c(Cl)cccc1NC(=O)CC1C(=O)Nc2ccccc2S1(=O)=O (configuration not stated) | 16.5 µM (inactive) | 17.1 µM (inactive) | 25.8 µM (inactive) | 18.6 µM (inactive) | 15.7 µM (inactive) | 12.2 µM (inactive) |  | 17.3 µM (inactive) |  |  | 16.6 µM (inactive) | 14.7 µM (inactive) | 15.8 µM (inactive) | 16.5 µM (inactive) | 18.2 µM (inactive) | 10.5 µM (inactive) | 11.6 µM (inactive) | 17.6 µM (inactive) | 5.5 µM (inactive)
14 | O=c1oc2c3ccc4ccccc4c3n(CCN3CCCCC3)c2c2ccccc12 | 9.35 µM (inactive) | 49.4 µM (inactive) | 37.2 µM (inactive) | > 71.6 µM (inactive) | > 100 µM (inactive) | 40.7 µM (inactive) |  | 10.3 µM (inactive) |  |  | 18.5 µM (inactive) | 17.1 µM (inactive) | 31.8 µM (inactive) | 31.6 µM (inactive) | 15.6 µM (inactive) | 3.21 µM (inactive) | > 100 µM (inactive) | 30.3 µM (inactive) | 15.1 µM (inactive)
15 | CC(C)c1cccc(C(C)C)c1NC(=O)C(=O)C1SC(=S)NC1=O (configuration not stated) | > 100 µM (inactive) | > 100 µM (inactive) | > 100 µM (inactive) | > 100 µM (inactive) | > 100 µM (inactive) | > 100 µM (inactive) |  | > 100 µM (inactive) |  |  |  | > 100 µM (inactive) | > 100 µM (inactive) | > 100 µM (inactive) | > 100 µM (inactive) | > 100 µM (inactive) | > 100 µM (inactive) | > 100 µM (inactive) | > 100 µM (inactive)
16 | O=c1cccccc1NCCCCCCCNc1cccccc1=O | 13.4 µM (inactive) | 25.3 µM (inactive) |  |  | 41.6 µM (inactive) |  |  | > 100 µM (inactive) |  |  | 24.5 µM (inactive) | 91.4 µM (inactive) | 37.2 µM (inactive) | 26.7 µM (inactive) | 21.8 µM (inactive) | 22.1 µM (inactive) | 13.8 µM (inactive) | 29.2 µM (inactive) | 17.8 µM (inactive)
17 | COc1ccc(/C=C2\CCC(CCN3CCOCC3)C2=O)cc1 (configuration not stated) | > 100 µM (inactive) | > 100 µM (inactive) | > 100 µM (inactive) | > 100 µM (inactive) | > 100 µM (inactive) | > 100 µM (inactive) |  | > 100 µM (inactive) |  |  | > 100 µM (inactive) | > 100 µM (inactive) | > 100 µM (inactive) | > 100 µM (inactive) | > 100 µM (inactive) | > 100 µM (inactive) | > 100 µM (inactive) | > 100 µM (inactive) | > 100 µM (inactive)
